Experimental data reported in patent US11912686B2 (Gilead Sciences, Inc., priority 2020, dated 2024).

Molecular target: human LPAR1 (Homo sapiens (Human), UniProt Q92633)
Assay: LPAR1 intracellular calcium mobilization assay (antagonist mode, FLIPR)
Format: cell-based
Conditions: CHO-K1 EDG2 cells expressing human LPAR1, LPA 18:2 at EC80 (100 nM), test compound 0.5 nM to 10 μM

Chain of human LPAR1 (Q92633 whole entry): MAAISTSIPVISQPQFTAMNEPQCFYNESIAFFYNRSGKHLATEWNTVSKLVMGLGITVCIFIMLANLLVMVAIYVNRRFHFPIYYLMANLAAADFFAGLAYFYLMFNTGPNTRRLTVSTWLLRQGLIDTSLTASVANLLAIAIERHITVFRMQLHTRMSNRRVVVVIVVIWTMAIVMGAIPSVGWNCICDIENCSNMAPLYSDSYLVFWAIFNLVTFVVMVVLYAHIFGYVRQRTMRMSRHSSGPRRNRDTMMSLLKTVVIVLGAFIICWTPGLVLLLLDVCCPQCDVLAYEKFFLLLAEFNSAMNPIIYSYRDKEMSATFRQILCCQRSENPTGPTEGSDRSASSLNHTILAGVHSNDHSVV

Point of comparison: `C[C@@H](OC(=O)Nc1c(-c2ccc(NC(=O)[C@]3(C#N)C[C@H]3F)cn2)nnn1C)c1cc(F)cnc1F` [Compound 269, (R)-1-(2,5-difluoropyridin-3-yl)ethyl (4-(5-((1R,2R)-1-cyano-2-fluorocyclopropane-1-carboxamido)pyridin-2-yl)-1-methyl-1H-1,2,3-triazol-5-yl)carbamate], EC50 127 nM. Against it:
- C[C@@H](OC(=O)Nc1c(-c2ccc(NC(=O)[C@@]3(C#N)C[C@@H]3C(F)(F)F)cn2)nnn1C)c1cccnc1Cl [Compound 202, (R)-1-(2-chloropyridin-3-yl)ethyl (4-(5-((1S,2S)-1-cyano-2-(trifluoromethyl)cyclopropane-1-carboxamido)pyridin-2-yl)-1-methyl-1H-1,2,3-triazol-5-yl)carbamate] — 25-fold lower, 5 nM
- CC(OC(=O)Nc1c(-c2ccc(NC(=O)C(F)(F)F)cn2)nnn1C)c1cc(Br)cnc1F (stereo not shown) [Compound 12, 1-(5-bromo-2-fluoropyridin-3-yl)ethyl (1-methyl-4-(5-(2,2,2-trifluoroacetamido)pyridin-2-yl)-1H-1,2,3-triazol-5-yl)carbamate] — 4.3-fold higher, 541 nM
- C[C@@H](OC(=O)Nc1c(-c2ccc(NC(=O)[C@@H]3C[C@H]3F)cn2)nnn1C)c1cc(F)cnc1F [Compound 161, (R)-1-(2,5-difluoropyridin-3-yl)ethyl (4-(5-((1S,2R)-2-fluorocyclopropane-1-carboxamido)pyridin-2-yl)-1-methyl-1H-1,2,3-triazol-5-yl)carbamate] — 1.9-fold lower, 66.8 nM
- C[C@@H](OC(=O)Nc1c(-c2ccc(NC(=O)[C@@H]3C[C@H]3CF)cn2)nnn1C)c1cc(F)cnc1F (mixture of isomers) [Compound 208, (R)-1-(2,5-difluoropyridin-3-yl)ethyl (4-(5-((1RS,2RS)-2-(fluoromethyl)cyclopropane-1-carboxamido)pyridin-2-yl)-1-methyl-1H-1,2,3-triazol-5-yl)carbamate] — 6-fold lower, 21.1 nM
- C[C@@H](OC(=O)Nc1c(-c2ccc(NC(=O)C3(C#N)CC34CCCC4)cn2)nnn1C)c1cccnc1Cl (stereo partly drawn) [Compound 89, (R)-1-(2-chloropyridin-3-yl)ethyl (4-(5-(1-cyanospiro[2.4]heptane-1-carboxamido)pyridin-2-yl)-1-methyl-1H-1,2,3-triazol-5-yl)carbamate] — 2.5-fold higher, 312 nM
- C[C@@H](OC(=O)Nc1c(-c2ccc(NC(=O)c3c[nH]cn3)cn2)nnn1C)c1cccnc1Cl [Compound 106, (R)-1-(2-chloropyridin-3-yl)ethyl (4-(5-(1H-imidazole-4-carboxamido)pyridin-2-yl)-1-methyl-1H-1,2,3-triazol-5-yl)carbamate] — 14-fold higher, 1760 nM
- C[C@@H](OC(=O)Nc1c(-c2cnc(NC(=O)c3cnc(C(F)(F)F)nc3)cn2)nnn1C)c1cccnc1F [Compound 325, (R)-1-(2-fluoropyridin-3-yl)ethyl (1-methyl-4-(5-(2-(trifluoromethyl)pyrimidine-5-carboxamido)pyrazin-2-yl)-1H-1,2,3-triazol-5-yl)carbamate] — within 1.5-fold, 185 nM
- Cc1cnc(F)cc1C(C)OC(=O)Nc1c(-c2ccc(NC(=O)C3CC(F)(F)C3)cn2)nnn1C (stereo not shown) [Compound 26, 1-(2-fluoro-5-methylpyridin-4-yl)ethyl (4-(5-(3,3-difluorocyclobutane-1-carboxamido)pyridin-2-yl)-1-methyl-1H-1,2,3-triazol-5-yl)carbamate] — 4.6-fold higher, 587 nM
- C[C@@H](OC(=O)Nc1c(-c2ccc(NC(=O)OC(C)(C)C)cn2)nnn1C)c1cccnc1Cl [Compound 11, (R)-1-(2-chloropyridin-3-yl)ethyl (4-(5-((tert-butoxycarbonyl)amino)pyridin-2-yl)-1-methyl-1H-1,2,3-triazol-5-yl)carbamate] — 5.8-fold higher, 731 nM
- C[C@@H](OC(=O)Nc1c(-c2ccc(NC(=O)[C@]3(F)C[C@H](O)C3)cn2)nnn1C)c1cccnc1Cl [Compound 133, (R)-1-(2-chloropyridin-3-yl)ethyl (4-(5-((1r,3R)-1-fluoro-3-hydroxycyclobutane-1-carboxamido)pyridin-2-yl)-1-methyl-1H-1,2,3-triazol-5-yl)carbamate] — 2.7-fold higher, 344 nM
- C[C@@H](OC(=O)Nc1c(-c2ccc(NC(=O)[C@H]3C[C@@H]3C3CC3)cn2)nnn1C)c1cc(F)cnc1F [Compound 268, (R)-1-(2,5-difluoropyridin-3-yl)ethyl (4-(5-((1R,2S)-[1,1′-bi(cyclopropane)]-2-carboxamido)pyridin-2-yl)-1-methyl-1H-1,2,3-triazol-5-yl)carbamate] — 17-fold lower, 7.3 nM
- C[C@@H](OC(=O)Nc1c(-c2ccc(NC(=O)c3cnc(C(F)(F)F)nc3)cn2)nnn1C)c1cccnc1Cl [Compound 205, (R)-1-(2-chloropyridin-3-yl)ethyl (1-methyl-4-(5-(2-(trifluoromethyl)pyrimidine-5-carboxamido)pyridin-2-yl)-1H-1,2,3-triazol-5-yl)carbamate] — 15-fold lower, 8.3 nM
- C[C@@H](OC(=O)Nc1c(-c2ccc(NC(=O)C34CC(C(F)(F)F)(C3)C4)cn2)nnn1C)c1cccnc1Cl [Compound 72, (R)-1-(2-chloroypridin-3-yl)ethyl (1-methyl-4-(5-(3-(trifluoromethyl)bicyclo[1.1.1]pentane-1-carboxamido)pyridin-2-yl)-1H-1,2,3-triazol-5-yl)carbamate] — 7.5-fold lower, 17 nM
- C[C@@H](OC(=O)Nc1c(-c2ccc(NC(=O)c3cnc(C(F)F)nc3)cn2)nnn1C)c1cc(F)cnc1Cl [Compound 289, (R)-1-(2-chloro-5-fluoropyridin-3-yl)ethyl (4-(5-(2-(difluoromethyl)pyrimidine-5-carboxamido)pyridin-2-yl)-1-methyl-1H-1,2,3-triazol-5-yl)carbamate] — 5.9-fold lower, 21.5 nM
- C[C@@H](OC(=O)Nc1c(-c2ccc(NC(=O)C34CC(C5COC5)(C3)C4)cn2)nnn1C)c1cccnc1Cl [Compound 44, (R)-1-(2-chloropyridin-3-yl)ethyl (1-methyl-4-(5-(3-(oxetan-3-yl)bicyclo[1.1.1]pentane-1-carboxamido)pyridin-2-yl)-1H-1,2,3-triazol-5-yl)carbamate] — within 1.5-fold, 165 nM
- C[C@@H](OC(=O)Nc1c(-c2ccc(NC(=O)c3ccccc3)cn2)nnn1C)c1cccnc1Cl [Compound 29, (R)-1-(2-chloropyridin-3-yl)ethyl (4-(5-benzamidopyridin-2-yl)-1-methyl-1H-1,2,3-triazol-5-yl)carbamate] — 2.1-fold higher, 261 nM
- C[C@@H](OC(=O)Nc1c(-c2ccc(NC(=O)C3(C(F)(F)F)CCC3)cn2)nnn1C)c1cccnc1Cl [Compound 48, (R)-1-(2-chloropyridin-3-yl)ethyl (1-methyl-4-(5-(1-(trifluoromethyl)cyclobutane-1-carboxamido)pyridin-2-yl)-1H-1,2,3-triazol-5-yl)carbamate] — 5.6-fold lower, 22.8 nM
- C[C@@H](OC(=O)Nc1c(-c2ccc(NC(=O)c3cnc(C4CC4)o3)cn2)nnn1C)c1cc(F)cnc1F [Compound 280, (R)-1-(2,5-difluoropyridin-3-yl)ethyl (4-(5-(2-cyclopropyloxazole-5-carboxamido)pyridin-2-yl)-1-methyl-1H-1,2,3-triazol-5-yl)carbamate] — within 1.5-fold, 98.7 nM
- C[C@@H](OC(=O)Nc1c(-c2ccc(NC(=O)[C@@H]3CC3(F)F)cn2)nnn1C)c1cccnc1Cl [Compound 65, (R)-1-(2-chloropyridin-3-yl)ethyl (4-(5-((S)-2,2-difluorocyclopropane-1-carboxamido)pyridin-2-yl)-1-methyl-1H-1,2,3-triazol-5-yl)carbamate] — 1.6-fold lower, 81.9 nM
- COCC(=O)Nc1ccc(-c2nnn(C)c2NC(=O)O[C@H](C)c2cccnc2Cl)nc1 [Compound 31, (R)-1-(2-chloropyridin-3-yl)ethyl (4-(5-(2-methoxyacetamido)pyridin-2-yl)-1-methyl-1H-1,2,3-triazol-5-yl)carbamate] — 18-fold higher, 2330 nM
- Cc1noc2cc(C(=O)Nc3ccc(-c4nnn(C)c4NC(=O)O[C@H](C)c4cc(F)cnc4F)nc3)ccc12 [Compound 279, (R)-1-(2,5-difluoropyridin-3-yl)ethyl (1-methyl-4-(5-(3-methylbenzo[d]isoxazole-6-carboxamido)pyridin-2-yl)-1H-1,2,3-triazol-5-yl)carbamate] — within 1.5-fold, 97.4 nM
- C[C@@H](OC(=O)Nc1c(-c2ccc(NC(=O)c3ccc(Cl)nc3)cn2)nnn1C)c1cc(F)cnc1F [Compound 212, (R)-1-(2,5-difluoropyridin-3-yl)ethyl (4-(5-(6-chloronicotinamido)pyridin-2-yl)-1-methyl-1H-1,2,3-triazol-5-yl)carbamate] — 2.3-fold lower, 56.4 nM
- C[C@@H](OC(=O)Nc1c(-c2ccc(NC(=O)C34CC(CO3)C4)cn2)nnn1C)c1cccnc1Cl [Compound 105, (R)-1-(2-chloropyridin-3-yl)ethyl (4-(5-(2-oxabicyclo[2.1.1]hexane-1-carboxamido)pyridin-2-yl)-1-methyl-1H-1,2,3-triazol-5-yl)carbamate] — 12-fold higher, 1580 nM
- C[C@@H](OC(=O)Nc1c(-c2ccc(NC(=O)c3cnc(C(F)F)nc3)cn2)nnn1C)c1cccnc1Cl [Compound 206, (R)-1-(2-chloropyridin-3-yl)ethyl (4-(5-(2-(difluoromethyl)pyrimidine-5-carboxamido)pyridin-2-yl)-1-methyl-1H-1,2,3-triazol-5-yl)carbamate] — 1.8-fold lower, 71.8 nM
- C[C@@H](OC(=O)Nc1c(-c2ccc(NC(=O)[C@]3(C#N)C[C@H]3C(F)(F)F)cn2)nnn1C)c1cccnc1Cl [Compound 201, (R)-1-(2-chloropyridin-3-yl)ethyl (4-(5-((1R,2R)-1-cyano-2-(trifluoromethyl)cyclopropane-1-carboxamido)pyridin-2-yl)-1-methyl-1H-1,2,3-triazol-5-yl)carbamate] — within 1.5-fold, 146 nM
- C[C@@H](OC(=O)Nc1c(-c2ccc(NC(=O)C3CC3(C)C)cn2)nnn1C)c1cccnc1Cl (stereo partly drawn) [Compound 49, (R)-1-(2-chloropyridin-3-yl)ethyl (4-(5-(2,2-dimethylcyclopropane-1-carboxamido)pyridin-2-yl)-1-methyl-1H-1,2,3-triazol-5-yl)carbamate] — 2.8-fold higher, 353 nM
- C[C@@H](OC(=O)Nc1c(-c2ccc(NC(=O)C3(CF)CC3)cn2)nnn1C)c1cccnc1Cl [Compound 110, (R)-1-(2-chloropyridin-3-yl)ethyl (4-(5-(1-(fluoromethyl)cyclopropane-1-carboxamido)pyridin-2-yl)-1-methyl-1H-1,2,3-triazol-5-yl)carbamate] — 1.9-fold lower, 68.2 nM
